From patent US10150763B2, “Histone deacetylase inhibitors and their use in therapy” (Karus Therapeutics Limited, priority 2012, dated 2018)
Where two headings read alike, the source gives them in different places.

Assays:
HDAC1 = HDAC1 (Homo sapiens (Human), UniProt Q13547); assay: HDAC inhibitory activity assay (as described in WO2008/062201), HDAC1; format: biochemical
HDAC6 = HDAC6 (Homo sapiens (Human), UniProt Q9UBN7); assay: HDAC inhibitory activity assay (as described in WO2008/062201), HDAC6; format: biochemical
A549 = assay: In vitro cancer cell growth inhibition, A549; format: cell-based; details: Homo sapiens
Description: (§1) In Vitro Cancer Cell Growth Inhibition Data for Compound A

PC-3 = assay: In vitro cancer cell growth inhibition, PC-3; format: cell-based; details: Homo sapiens; PC-3 cancer cell growth inhibition
Description: as §1

[1] = Comparative mouse pharmacokinetics (oral bioavailability); details: in vivo, read-out: Oral bioavailability, F %
[2] = class symbol, read-out: IC50, HDAC1
[3] = class symbol, read-out: IC50, HDAC6

Chain of HDAC1 (Q13547 whole entry, species assumed): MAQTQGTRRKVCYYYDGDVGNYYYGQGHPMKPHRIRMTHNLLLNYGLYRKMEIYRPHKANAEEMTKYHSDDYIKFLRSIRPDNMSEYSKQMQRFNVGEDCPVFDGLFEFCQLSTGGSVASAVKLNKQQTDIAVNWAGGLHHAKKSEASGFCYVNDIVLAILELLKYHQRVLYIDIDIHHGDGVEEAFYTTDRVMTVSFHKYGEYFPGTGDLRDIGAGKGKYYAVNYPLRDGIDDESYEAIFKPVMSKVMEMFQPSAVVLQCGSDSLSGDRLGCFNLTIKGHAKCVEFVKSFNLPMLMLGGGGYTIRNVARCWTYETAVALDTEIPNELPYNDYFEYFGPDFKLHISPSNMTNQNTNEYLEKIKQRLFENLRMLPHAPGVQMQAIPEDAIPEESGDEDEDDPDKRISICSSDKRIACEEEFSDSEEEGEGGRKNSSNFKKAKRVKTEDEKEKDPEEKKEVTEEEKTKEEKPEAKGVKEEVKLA
Chain of HDAC6 (Q9UBN7 whole entry, species assumed): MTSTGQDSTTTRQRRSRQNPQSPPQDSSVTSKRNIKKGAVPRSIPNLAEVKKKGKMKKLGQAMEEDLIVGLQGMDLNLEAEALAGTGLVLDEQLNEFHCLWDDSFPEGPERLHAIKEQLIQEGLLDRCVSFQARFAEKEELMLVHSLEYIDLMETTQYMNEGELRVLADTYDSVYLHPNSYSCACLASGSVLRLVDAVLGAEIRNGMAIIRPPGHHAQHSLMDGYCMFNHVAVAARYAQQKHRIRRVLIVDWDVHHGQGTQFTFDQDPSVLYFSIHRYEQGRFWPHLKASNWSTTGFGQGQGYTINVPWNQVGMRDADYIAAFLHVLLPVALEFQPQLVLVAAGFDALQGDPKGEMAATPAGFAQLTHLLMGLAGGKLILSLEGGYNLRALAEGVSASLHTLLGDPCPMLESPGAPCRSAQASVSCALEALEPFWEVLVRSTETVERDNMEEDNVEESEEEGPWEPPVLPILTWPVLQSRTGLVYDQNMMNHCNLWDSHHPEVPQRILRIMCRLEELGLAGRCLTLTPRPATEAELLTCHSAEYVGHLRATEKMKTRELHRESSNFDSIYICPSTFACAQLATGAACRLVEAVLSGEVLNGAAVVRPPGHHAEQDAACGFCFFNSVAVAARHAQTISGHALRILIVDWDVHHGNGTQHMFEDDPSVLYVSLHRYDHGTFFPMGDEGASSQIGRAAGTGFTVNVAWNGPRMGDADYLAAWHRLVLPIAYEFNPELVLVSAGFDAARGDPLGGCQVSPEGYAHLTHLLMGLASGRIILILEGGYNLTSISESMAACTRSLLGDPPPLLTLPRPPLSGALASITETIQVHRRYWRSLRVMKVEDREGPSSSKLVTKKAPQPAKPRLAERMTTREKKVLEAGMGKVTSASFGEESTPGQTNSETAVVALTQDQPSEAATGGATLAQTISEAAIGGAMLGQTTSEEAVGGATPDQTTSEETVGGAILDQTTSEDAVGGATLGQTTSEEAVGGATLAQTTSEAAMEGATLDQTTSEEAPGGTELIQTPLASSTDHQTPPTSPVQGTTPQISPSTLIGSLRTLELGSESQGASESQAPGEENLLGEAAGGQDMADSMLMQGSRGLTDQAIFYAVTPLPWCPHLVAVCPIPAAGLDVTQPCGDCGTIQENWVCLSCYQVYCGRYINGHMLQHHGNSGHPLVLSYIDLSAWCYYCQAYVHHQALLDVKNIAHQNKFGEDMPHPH

Structure (SMILES)	IC50 (HDAC1; [2])	IC50 (HDAC6; [3])	other results
Cc1nsc(N(CCCCCCC(=O)NO)c2ccccn2)n1 [Example A, N-Hydroxy-7-[(3-methyl-1,2,4-thiadiazol-5-yl)(pyridin-2-yl)amino]heptanamide]			IC50 (HDAC1): < 500 nM; IC50 (HDAC1; numeric value, read-out: IC50, HDAC1): 226 nM; IC50 (HDAC6): < 500 nM; IC50 (HDAC6; numeric value, read-out: IC50, HDAC6): 1.76 nM; IC50 (A549): 1.89 µM; IC50 (PC-3): 2.32 µM; bioavailability [1]: 19%
O=C(CCCCCCN(c1ccccn1)c1nc(C(F)(F)F)ns1)NO [Example AA]	1000 to 10000 nM		
Cc1nsc(N(CCCCCCC(=O)NO)c2cccnc2)n1 [Example B, N-Hydroxy-7-[(3-methyl-1,2,4-thiadiazol-5-yl)(pyridin-3-yl)amino]heptanamide]	< 500 nM	< 500 nM	
Cc1nsc(N(CCCCCCC(=O)NO)c2ccc(F)cn2)n1 [Example CC, 7-((5-Fluoropyridin-2-yl)(3-methyl-1,2,4-thiadiazol-5-yl)amino)-N-hydroxyheptanamide]	500 to 1000 nM	< 500 nM	
Cc1noc(N(CCCCCCCC(=O)NO)c2ccccn2)n1 [Example D, N-Hydroxy-8-((3-methyl-1,2,4-oxadiazol-5-yl)(pyridin-2-yl)amino)octanamide]	1000 to 10000 nM		
Cc1nsc(N(CCCCCCCC(=O)NO)c2ccc(F)cn2)n1 [Example DD, 8-((5-Fluoropyridin-2-yl)(3-methyl-1,2,4-thiadiazol-5-yl)amino)-N-hydroxyoctanamide]	1000 to 10000 nM	< 500 nM	
Cc1nsc(N(CCCCCCC(=O)NO)c2cc(-c3ccc(F)cc3)ccn2)n1 [Example EE, 7-((4-(4-Fluorophenyl)pyridin-2-yl)(3-methyl-1,2,4-thiadiazol-5-yl)amino)-N-hydroxyheptanamide]	1000 to 10000 nM	< 500 nM	
Cc1nsc(N(CCCCCCCC(=O)NO)c2cc(-c3ccc(F)cc3)ccn2)n1 [Example FF, 8-((4-(4-Fluorophenyl)-pyridin-2-yl)(3-methyl-1,2,4-thiadiazol-5-yl)amino)-N-hydroxyoctanamide]	1000 to 10000 nM	< 500 nM	
O=C(CCCCCCN(c1ccc(F)cn1)c1nc(C(F)(F)F)ns1)NO [Example GG, 7-((5-Fluoropyridin-2-yl)(3-(trifluoromethyl)1,2,4-thiadiazol-5-yl)amino)-N-hydroxyheptanamide]	500 to 1000 nM	< 500 nM	
O=C(CCCCCCCN(c1ccccn1)c1nncs1)NO [Example H, N-Hydroxy-8-(pyridin-2-yl(1,3,4-thiadiazol-2-yl)amino)octanamide]	1000 to 10000 nM		
O=C(CCCCCCCN(c1ccc(F)cn1)c1nc(C(F)(F)F)ns1)NO [Example HH, 8-((5-Fluoropyridin-2-yl)(3-(trifluoromethyl)1,2,4-thiadiazol-5-yl)amino)-N-hydroxyoctanamide]	1000 to 10000 nM	< 500 nM	
Cc1nnc(N(CCCCCCC(=O)NO)c2ccccn2)s1 [Example I, N-Hydroxy-7-((5-methyl-1,3,4-thiadiazol-2-yl)(pyridin-2-yl)amino)heptanamide]	500 to 1000 nM		
Cc1nnc(N(CCCCCCCC(=O)NO)c2ccccn2)s1 [Example J, N-Hydroxy-8-((5-methyl-1,3,4-thiadiazol-2-yl)(pyridin-2-yl)amino)octanamide]	1000 to 10000 nM		
O=C(CCCCCCN(c1ccccn1)c1nccs1)NO [Example KK, N-Hydroxy-7-(pyridin-2-yl(thiazol-2-yl)amino)heptanamide]	1000 to 10000 nM		
O=C(CCCCCCCN(c1ccccn1)c1nccs1)NO [Example LL, N-Hydroxy-8-(pyridin-2-yl(thiazol-2-yl)amino)octanamide]	1000 to 10000 nM		
Cn1c(N(CCCCCCC(=O)NO)c2ccccn2)nc2ccccc21 [Example M, N-Hydroxy-7-((1-methyl-1H-benzo[d]imidazol-2-yl)(pyridin-2-yl)amino)heptanamide]	1000 to 10000 nM		
O=C(CCCCCCN(c1ccccn1)c1ncns1)NO [Example O, N-Hydroxy-7-(pyridin-2-yl(1,2,4-thiadiazol-5-yl)amino)heptanamide]	500 to 1000 nM		
O=C(CCCCCCCN(c1ccccn1)c1ncns1)NO [Example P, N-Hydroxy-8-(pyridin-2-yl(1,2,4-thiadiazol-5-yl)amino)octanamide]	1000 to 10000 nM		
Cc1noc(N(CCCCCCC(=O)NO)c2ccc(F)cn2)n1 [Example Q, 7-((5-Fluoropyridin-2-yl)(3-methyl-1,2,4-oxadiazol-5-yl)amino)-N-hydroxyheptanamide]	> 10000 nM	< 500 nM	
Cc1noc(N(CCCCCCCC(=O)NO)c2ccc(F)cn2)n1 [Example R, 8-((5-Fluoropyridin-2-yl)(3-methyl-1,2,4-oxadiazol-5-yl)amino)-N-hydroxyoctanamide]	1000 to 10000 nM	< 500 nM	
Cn1c(N(CCCCCCC(=O)NO)c2ccc(F)cn2)nc2ccccc21 [Example S, 7-((5-Fluoropyridin-2-yl)(1-methyl-1H-benzo[d]imidazol-2-yl)amino)-N-hydroxyheptanamide]	500 to 1000 nM	< 500 nM	
Cn1c(N(CCCCCCCC(=O)NO)c2ccc(F)cn2)nc2ccccc21 [Example T, 8-((5-Fluoropyridin-2-yl)(1-methyl-1H-benzo[d]imidazol-2-yl)amino)-N-hydroxyoctanamide]	1000 to 10000 nM	< 500 nM	
Cn1ccc(N(CCCCCCC(=O)NO)c2ccc(F)cn2)n1 [Example U, 7-((5-Fluoropyridin-2-yl)(1-methyl-1H-pyrazol-3-yl)amino)-N-hydroxyheptanamide]	1000 to 10000 nM	< 500 nM	
Cn1ccc(N(CCCCCCCC(=O)NO)c2ccc(F)cn2)n1 [Example V, 8-((5-Fluoropyridin-2-yl)(1-methyl-1H-pyrazol-3-yl)amino)-N-hydroxyoctanamide]	> 10000 nM	< 500 nM	
O=C(CCCCCCN(c1ccc(F)cn1)c1nc2ccccc2o1)NO [Example W, 7-(Benzo[d]oxazol-2-yl(5-fluoropyridin-2-yl)amino)-N-hydroxyheptanamide]	1000 to 10000 nM	< 500 nM	
O=C(CCCCCCCN(c1ccc(F)cn1)c1nc2ccccc2o1)NO [Example X, 8-(Benzo[d]oxazol-2-yl(5-fluoropyridin-2-yl)amino)-N-hydroxyoctanamide]	1000 to 10000 nM	< 500 nM	
Cn1ccc(N(CCCCCCC(=O)NO)c2cc(-c3ccc(F)cc3)ccn2)n1 [Example Y, 7-((4-(4-Fluorophenyl)pyridin-2-yl)(1-methyl-1H-pyrazol-3-yl)amino)-N-hydroxyheptanamide]	< 500 nM	< 500 nM	
Cn1ccc(N(CCCCCCCC(=O)NO)c2cc(-c3ccc(F)cc3)ccn2)n1 [Example Z, 8-((4-(4-Fluorophenyl)pyridin-2-yl)(1-methyl-1H-pyrazol-3-yl)amino)-N-hydroxyoctanamide]	> 10000 nM	< 500 nM	
